Results taken from PMC12454639, “Direct disassembly of α-syn preformed fibrils into α-syn monomers by an all-D-peptide” (NPJ Parkinson's Disease, 2025).
Entries after “also recorded” stand apart in the source; their conditions may differ. Square brackets hold non-standard residues; d marks the D form. Peptide text beside a SMILES is read from it.

Tests used:
[1] = system: α-synA53T–YFP cells (HEK293T)
α-syn monomer = assay: SDS–PAGE of fractionated de novo aggregation samples; assay type: biochemical; settings: 10 µM α-syn, 5, 10, 20 µM SVD-1a, 7 days, silver staining
Protocol: For small PFF pre incubation with or without SVD-1a (Fig. 4) samples were pre-incubated at 37 °C and 600 rpm for 72 h in PBS pH 7.4 with 0.05% sodium azide using protein low binding reaction tubes in a thermos shaker (Eppendorf GmbH, GE). For de novo aggregation analysis, each replicate was pre-incubated in PBS pH 7.4 with 0.05% sodium azide in a 96-well non-binding half-area plate (Corning, USA) in a FLUOStar platereader (BMG labtech, GE) with 300 rpm continuous orbital shaking in between reads, adding one borosilicate bead per well (d = 3 mm, Hilgenberg, GE, n = 7). 10 µM α-syn monomer was incubated with or without 5, 10 or 20 µM SVD-1a for 7 days. […] The α-syn concentration of the samples was then quantified using an α-syn-specific kit (Human α-Synuclein (Colorimetric), 448607, BioLegend, USA). […]
Supplementary Fig. 20: SDS-PAGE analysis of de novo aggregation samples at incubation endpoint in presence or absence of SVD-1a. 10 µM α-syn monomer was incubated with or without 5, 10 or 20 µM SVD-1a for 7d in a 96-well non-binding half-area plate (Corning, USA) in a FLUOStar platereader (BMG labtech, GE) with 300 rpm continuous orbital shaking in between reads adding one borosilicate bead per well (d = 3 mm, Hilgenberg, GE, n = 7). […] Retentate and flow through samples were analyzed using SDS-PAGE with silver staining. […]

small α-syn PFF seeds = assay: Time-dependent DLS of small α-syn PFF seeds disassembly; assay type: biochemical; set-up: rate constant of PFF disassembly: unit not given here; settings: 200 nM PFF + 500 nM SVD-1a
Protocol: Fig. 4 SVD-1a disassembles small α-syn PFF seeds into α-syn monomers. Small α-syn PFF seeds were prepared as described previously. […] A and B Time-dependent DLS measurements with 200 nM small α-syn PFF seeds in the absence (A) and presence (B) of 500 nM SVD-1a. 1 ml sample was continuously measured in a sealed quartz cuvette at 37 °C under quiescent conditions every 60 s for 72 h in a SpectroSize 300 instrument (XtalConcepts, GE). Data are shown as a radius plot where the signal amplitude of each particle size is represented by the data point diameter. C One-phase exponential decay fit of “200 nM PFF + 500 nM SVD-1a” shown in (B). Fit was performed for particles in the range of 1–100 nm with an amplitude > 0.2. Outliers were excluded from fitting using a Q value of 1%. […] Fitting was performed using the “One phase exponential decay” fitting function from GraphPad Prism 10 (GraphPad Software Inc., USA). […] D For AFM analysis, small α-syn PFF seeds pretreated with or without 400 and 1600 nM SVD-1a were incubated and dried on a freshly cleaved mica surface, followed by washing with ddH2O and drying using a gentle stream of N2. Analysis was performed using the NanoWizard 3 system (J-1100, JPK BioAFM, USA), recording multiple surface sections. The sections shown are representative of the observed species and particle density identified on all surface sections. E Exemplary Western blot of small α-syn PFF samples incubated with SVD-1a. 200 nM small α-syn PFFs (monomer equivalent) were incubated with increasing concentrations of SVD-1a for 72 h at 37 °C. PFF and monomer samples that were incubated without SVD-1a served as controls. α-Syn was detected with the antibody Syn211. A prominent α-syn monomer band was present at the expected molecular weight. Below the monomer bands, no further bands were visible. In the upper part of the blot, above the marker range, PFFs were detected, using a longer exposure time due to a weaker signal (see Supplementary Fig. 11 for the whole blot image with different exposure times). F Size-based fractionation by centrifugal concentration followed by ELISA quantification. 200 nM small α-syn PFF (monomer equivalent) were incubated with or without SVD-1a together with a 200 nM monomer control for 72 h at 37 °C. After incubation, the samples were fractioned using a 100 kDa MWCO centrifugal concentrator (Merck, Microcon DNA Fast Flow 100 MWCO). α-Syn content of flow through (red) and retentate (blue) was quantified using an α-syn specific ELISA (BioLegend, Human α-Synuclein (Colorimetric), 448607). Shown are the fractions of the retentate and flow through as a percentage of the total concentration identified for each sample. A linear regression line (blue or red dotted lines) was included for the SVD-1a-treated samples (left) to underline the concentration dependency of the SVD-1a treatment effect. The fractions identified for the α-syn monomer control sample are shown as a bar graph (right). […] Data are shown as mean values with ±SD (n = 3).
small α-syn PFF seeds were prepared as described previously with some modifications. […] The monomer equivalent concentration was determined by measuring the α-syn concentration in the supernatant after the first centrifugation and subtracting it from the start concentration for fibrilization. […]

[2] = one-phase exponential decay, 37 °C

## CC[C@@H](C)[C@@H](NC(=O)[C@@H](Cc1c[nH]cn1)NC(=O)[C@@H](CCC(=O)O)NC(=O)[C@@H](CCC(N)=O)NC(=O)[C@@H](Cc1c[nH]c2ccccc12)NC(=O)[C@@H](Cc1ccc(O)cc1)NC(=O)[C@H](NC(=O)[C@@H](CCC(=O)O)NC(=O)[C@@H](Cc1c[nH]cn1)NC(=O)[C@H](NC(=O)[C@H]1CCCN1C(=O)[C@@H](CC(C)C)NC(=O)[C@H](N)CCCNC(=N)N)[C@H](C)O)[C@H](C)O)C(=O)N[C@H](Cc1c[nH]c2ccccc12)C(=O)N[C@H](Cc1c[nH]cn1)C(=O)N[C@H](C)C(=O)N[C@H](CCCNC(=N)N)C(=O)N[C@H](CCCNC(=N)N)C(=O)N[C@H](CCCNC(=N)N)C(=O)N[C@H](CCCNC(=N)N)C(=O)N[C@H](CCCNC(=N)N)C(N)=O [SVD-1a] (H-[dR][dL][dP][dT][dH][dE][dT][dY][dW][dQ][dE][dH][dI][dW][dH][dA][dR][dR][dR][dR][dR]-NH2)
[1]
  cell viability, PFF-seeded α-synA53T–YFP cells: did not induce significantly different luminescence in comparison to unseeded cells or seeded cells without peptide treatment
α-syn monomer
  aggregate band in retentate / shift to flow-through: a progressive shift of α-syn from the retentate to the flow-through is observed; also recorded: the aggregate band intensity was substantially diminished
Small α-syn PFF seeds; 37 °C, 72 h
  radius of monomeric α-syn formed: ~ 1.6 nm
Small α-syn PFF seeds; PBS pH 7.4, 37 °C, 72 h, particles 1–100 nm, amplitude > 0.2
  span of one-phase exponential decay: 23.38 nm
Small α-syn PFF seeds; no change (26 nm) without SVD-1a
  radius of small α-syn PFF seeds eliminated: ~ 26 nm
Small α-syn PFF seeds; [2]
  half-life of PFF disassembly: 5.2 h
  rate constant of PFF disassembly: 0.132
